According to US20060079453A1, “Hla binding peptides and their uses” (priority 2002, published 2006):
Like-named read-outs stand apart in the source and are kept apart here. No end group written: not given here.

How the values were obtained:
Test in all cases: biochemical
Type in all cases: binding
[1] = biological target: HLA-DR DRB4*0101 (DR53) (Homo sapiens, UniProt P01903+P13762, G164S)
[2] = biological target: HLA-DR DRB1*1501 (DR15) (Homo sapiens, UniProt P01903+P01911)
[3] = biological target: HLA-DR DRB1*0701 (DR7) (Homo sapiens, UniProt P01903+P01911, A100R/A102G/A103Q/D57E/D86V/E43K/F76Y/K127E/L162R/M171V/P40G/Q125H/Q99D/R33Q/R42Y/R54Q/S133A/S66F/T210M/V115G/Y107V/Y59L/Y89S)
[4] = biological target: HLA-DR DRB1*1101 (DR11) (Homo sapiens, UniProt P01903+P01911, A100R/A169T/A87E/I96F/K41T/L162R/M171V/P40S/Q125H/Q178H/Q39Y/Q99D/R42S/S66Y/T262R/V115G/W38E)
[5] = biological target: HLA-DR DRB5*0101 (DR51) (Homo sapiens, UniProt P01903+Q30154)
[6] = biological target: HLA-DR DRB1*0401 (DR4) (Homo sapiens, UniProt P01903+P01911, A100K/A169T/F76Y/I96L/K127E/L162R/M171V/N62H/P40V/Q125Y/R42H/S133A/S149N/S66Y/V115G/V209L/W38E)
[7] = biological target: HLA-DR DRB1*0301 (DR3) (Homo sapiens, UniProt P01903+P01911, A100K/A102G/A103R/A169T/F55Y/I96L/K41T/L162R/M171V/P40S/Q125H/Q178H/Q39Y/R42S/S66N/T106N/T262R/W38E/Y61H)
[8] = biological target: HLA-DR DRB1*0101 (DR1) (Homo sapiens, UniProt P01903+P01911, A100R/D57E/F55L/F60I/F76Y/I96L/L162R/M171V/P40L/Q125E/R42F/V115G/Y59C)
[9] = biological target: HLA-DR DRB1*1302 (DR13) (Homo sapiens, UniProt P01903+P01911, A100E/A169T/K41T/L162R/M171V/P40S/Q125H/Q178H/Q39Y/Q99D/R42S/S66N/T262R/V115G/W38E/Y61H)
Sequence of HLA-DR DRB1*1302 (DR13) (P01903 26-254 limits assumed, other chains not shown): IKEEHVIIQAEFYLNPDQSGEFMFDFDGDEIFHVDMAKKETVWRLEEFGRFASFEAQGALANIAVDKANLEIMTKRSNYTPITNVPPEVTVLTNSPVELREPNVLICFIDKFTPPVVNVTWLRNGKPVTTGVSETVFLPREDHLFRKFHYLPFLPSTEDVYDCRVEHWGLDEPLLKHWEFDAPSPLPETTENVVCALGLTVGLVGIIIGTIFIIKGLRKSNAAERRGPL

Sequence of HLA-DR DRB1*1101 (DR11) (P01903 26-254 limits assumed, other chains not shown): as above
Sequence of HLA-DR DRB1*0301 (DR3) (P01903 26-254 limits assumed, other chains not shown): as above

With CC[C@H](C)[C@H](NC(=O)[C@H](C)NC(=O)[C@H](CCC(N)=O)NC(=O)[C@H](CCCNC(=N)N)NC(=O)[C@H](CC(C)C)NC(=O)[C@H](C)NC(=O)[C@@H](NC(=O)[C@H](Cc1c[nH]cn1)NC(=O)[C@H](Cc1c[nH]cn1)NC(=O)[C@@H]1CCCN1)[C@@H](C)O)C(=O)N[C@@H](CC(C)C)C(=O)N[C@@H](CO)C(=O)N[C@@H](Cc1c[nH]c2ccccc12)C(=O)NCC(=O)N[C@@H](CCC(=O)O)C(=O)N[C@@H](CC(C)C)C(=O)N[C@@H](CCSC)C(=O)N[C@H](C(=O)N[C@@H](CC(C)C)C(=O)N[C@@H](C)C(=O)O)[C@@H](C)O the IC50 [1] was 48 nM, the IC50 [2] was 5.3 nM and the IC50 [3] was 14400 nM. The IC50 [4] was 3.12 µM.
In the case of (16A)RQTTLKAAA, the IC50 ([5]; read-out: DRB5 *0101) is reported as 4 µM, the IC50 ([6]; read-out: DRB1 *0401) is reported as 1.3 nM and the IC50 ([4]; read-out: DRB1 *1101) is reported as 0.077 µM.
AAAKAAAAAAYAA was tested, and the IC50 ([6]; DRB1 *0401) was 229 nM and the IC50 [7] was > 900 µM.
In the case of AALAAAAAAKAAA, the IC50 ([8]; read-out: DRB1 *0101) is reported as 1.9 nM, the IC50 ([5]; read-out: DRB5 *0101) is reported as 0.067 µM and the IC50 ([6]; read-out: DRB1 *0401) is reported as 12 nM. The IC50 ([4]; read-out: DRB1 *1101) was 2.22 µM.
ALLKNYGLLYCFRIW was tested, and the IC50 ([2]; read-out: DRBI *1501) was 17 nM, the IC50 ([9]; read-out: DRBI *1302) was 10 nM and the IC50 ([4]; read-out: DRB1 *1101) was > 15.4 µM.
In the case of ALVRQGLAKVA, the IC50 ([5]; DRB5 *0101) is reported as > 10 µM, the IC50 ([6]; DRB1 *0401) is reported as 190 nM and the IC50 ([4]; DRB1 *1101) is reported as ≥ 200 µM.
In the case of Ac-ASQKRPSQRHGSKYLATAST, the IC50 [7] is reported as > 900 µM.
In the case of Ac-NPTKHKWEAAHVAEQLAA, the IC50 ([2]; DRBI *1501) is reported as 200000 nM, the IC50 ([9]; DRBI *1302) is reported as > 10000 nM and the IC50 ([4]; DRB1 *1101) is reported as > 33.3 µM.
CIVYRDCIAYAACHK was tested, and the IC50 ([5]; read-out: DRB5 *0101) was 1.91 µM, the IC50 ([6]; read-out: DRB1 *0401) was 928 nM and the IC50 ([3]; read-out: DRB1 *0701) was > 14600 nM. It also gave an IC50 ([4]; read-out: DRB1 *1101) of 35.6 µM.
DFVFADLRIVYRDGN gave an IC50 ([1]; read-out: DRB4 *0101) of 6710 nM, an IC50 ([5]; read-out: DRB5 *0101) of 8.43 µM and an IC50 ([4]; read-out: DRB1 *1101) of 6.96 µM.
Compound DHRQLQLSISSCLQQLSLLM has an IC50 ([8]; DRB1 *0101) of 1360 nM, an IC50 ([1]; DRB4 *0101) of 532 nM and an IC50 ([5]; DRB5 *0101) of 63.8 µM. For the same compound, the IC50 ([2]; DRBI *1501) was 67 nM, the IC50 [7] was 42.7 µM and the IC50 ([3]; DRB1 *0701) was 736 nM. For the same compound, the IC50 ([9]; DRBI *1302) was 69 nM and the IC50 ([4]; DRB1 *1101) was > 98.5 µM.
With “DPNANPNVDPNANPNVNANPNANPNANP(X4)QKWAAVVVPS” the IC50 ([1]; read-out: DRB4 *0101) was > 72500 nM, the IC50 ([5]; read-out: DRB5 *0101) was > 2.9 µM and the IC50 ([2]; read-out: DRBI *1501) was > 7580 nM. For the same compound, the IC50 ([4]; read-out: DRB1 *1101) was > 12.5 µM.
DRTLMSAMTNLAALE showed an IC50 ([8]; read-out: DRB1 *0101) of 97 nM, an IC50 ([6]; read-out: DRB1 *0401) of 13 nM and an IC50 ([7]; read-out: DRB1 *0301) of 64.3 µM. The IC50 ([3]; read-out: DRB1 *0701) was 383 nM.
Compound DRTLMSAMTNLAALF has an IC50 ([1]; read-out: DRB4 *0101) of 57 nM, an IC50 ([5]; read-out: DRB5 *0101) of 26.1 µM and an IC50 ([4]; read-out: DRB1 *1101) of 2.37 µM.
For EEDIEIIFIQEEEY, the IC50 ([5]; read-out: DRB5 *0101) was 46.1 µM and the IC50 ([4]; read-out: DRB1 *1101) was > 20.6 µM.
